Results from PubChem BioAssay (NCI).
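All cell lines were grown in 96-well plates and treated with compound for 48 hours. TGI is the concentration that stops growth completely.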

Columns and labels:
Test in all cases: NCI-60 cell line screen, 48 h
OVCAR-5 ovarian = test system: OVCAR-5 ovarian
RXF 393 renal = test system: RXF 393 renal
KM12 colon = test system: KM12 colon
COLO 205 colon = test system: COLO 205 colon
ACHN renal = test system: ACHN renal
M14 melanoma = test system: M14 melanoma
NCI-H522 lung = test system: NCI-H522 lung
LOX IMVI melanoma = test system: LOX IMVI melanoma
SN12C renal = test system: SN12C renal
IGROV1 ovarian = test system: IGROV1 ovarian
EKVX NSCLC = test system: EKVX NSCLC
SK-MEL-5 melanoma = test system: SK-MEL-5 melanoma
NCI/ADR-RES ovarian = test system: NCI/ADR-RES ovarian
NCI-H23 lung = test system: NCI-H23 lung
786-0 renal = test system: 786-0 renal
SF-539 CNS = test system: SF-539 CNS
A549 NSCLC = test system: A549 NSCLC
SK-OV-3 ovarian = test system: SK-OV-3 ovarian
MCF7 breast = test system: MCF7 breast
HCT-15 colon = test system: HCT-15 colon
U251 CNS = test system: U251 CNS
CAKI-1 renal = test system: CAKI-1 renal
SNB-19 CNS = test system: SNB-19 CNS
MOLT-4 leukemia = test system: MOLT-4 leukemia
SK-MEL-2 melanoma = test system: SK-MEL-2 melanoma
OVCAR-3 ovarian = test system: OVCAR-3 ovarian
SK-MEL-28 melanoma = test system: SK-MEL-28 melanoma
NCI-H226 lung = test system: NCI-H226 lung
UACC-62 melanoma = test system: UACC-62 melanoma
MDA-N = test system: MDA-N
MALME-3M melanoma = test system: MALME-3M melanoma
K-562 leukemia = test system: K-562 leukemia
BT-549 breast = test system: BT-549 breast
PC-3 prostate = test system: PC-3 prostate
DU-145 prostate = test system: DU-145 prostate
SF-268 CNS = test system: SF-268 CNS
HOP-62 NSCLC = test system: HOP-62 NSCLC
TK-10 renal = test system: TK-10 renal
HCT-116 colon = test system: HCT-116 colon
RPMI-8226 leukemia = test system: RPMI-8226 leukemia
A498 renal = test system: A498 renal
OVCAR-4 ovarian = test system: OVCAR-4 ovarian
HCC-2998 colon = test system: HCC-2998 colon
MDA-MB-435 = test system: MDA-MB-435
OVCAR-8 ovarian = test system: OVCAR-8 ovarian
SNB-75 CNS = test system: SNB-75 CNS
MDA-MB-231 breast = test system: MDA-MB-231 breast
HT29 colon = test system: HT29 colon
SF-295 CNS = test system: SF-295 CNS
SW-620 colon = test system: SW-620 colon
CCRF-CEM leukemia = test system: CCRF-CEM leukemia
UACC-257 melanoma = test system: UACC-257 melanoma
UO-31 renal = test system: UO-31 renal
SR leukemia = test system: SR leukemia
HS 578T breast = test system: HS 578T breast
HOP-92 NSCLC = test system: HOP-92 NSCLC
NCI-H460 lung = test system: NCI-H460 lung
HL-60(TB) leukemia = test system: HL-60(TB) leukemia

COC(=O)C([C@H]1CC[C@H](OCc2ccccc2)[C@@]1(O)COCc1ccccc1)C(C)(O)CCc1ccccc1 (stereo partly drawn)
TGI (OVCAR-5 ovarian): 27 µM
TGI (RXF 393 renal): 25.9 µM
TGI (KM12 colon): 16.4 µM
TGI (COLO 205 colon): 25.8 µM
TGI (ACHN renal): 29.2 µM
TGI (M14 melanoma): 22.9 µM
TGI (NCI-H522 lung): 26.1 µM
TGI (LOX IMVI melanoma): 22.8 µM
TGI (SN12C renal): 16.2 µM
TGI (IGROV1 ovarian): 29.3 µM
TGI (EKVX NSCLC): 38.2 µM
TGI (SK-MEL-5 melanoma): 27.6 µM
TGI (NCI/ADR-RES ovarian): 26.5 µM
TGI (NCI-H23 lung): 37.8 µM
TGI (786-0 renal): 27.4 µM
TGI (SF-539 CNS): 29.1 µM
TGI (A549 NSCLC): 27.1 µM
TGI (SK-OV-3 ovarian): > 100 µM
TGI (MCF7 breast): 25.3 µM
TGI (HCT-15 colon): 37.4 µM
TGI (U251 CNS): 27.2 µM
TGI (CAKI-1 renal): > 100 µM
TGI (SNB-19 CNS): > 100 µM
TGI (MOLT-4 leukemia): 19.7 µM
TGI (SK-MEL-2 melanoma): 25.3 µM
TGI (OVCAR-3 ovarian): 27.2 µM
TGI (SK-MEL-28 melanoma): 30.1 µM
TGI (NCI-H226 lung): 26.6 µM
TGI (UACC-62 melanoma): 26.6 µM
TGI (MDA-N): 26.6 µM
TGI (MALME-3M melanoma): 25.7 µM
TGI (K-562 leukemia): 35.5 µM
TGI (BT-549 breast): 30.8 µM
TGI (PC-3 prostate): 16.3 µM
TGI (DU-145 prostate): 72.7 µM
TGI (SF-268 CNS): 22 µM
TGI (HOP-62 NSCLC): 29.6 µM
TGI (TK-10 renal): 39.9 µM
TGI (HCT-116 colon): 24.2 µM
TGI (RPMI-8226 leukemia): 43.3 µM
TGI (A498 renal): 28.6 µM
TGI (OVCAR-4 ovarian): 43.9 µM
TGI (HCC-2998 colon): 33.2 µM
TGI (MDA-MB-435): 29.4 µM
TGI (OVCAR-8 ovarian): 41.5 µM
TGI (SNB-75 CNS): 19.7 µM
TGI (MDA-MB-231 breast): 26.2 µM
TGI (HT29 colon): 22.2 µM
TGI (SF-295 CNS): 23.3 µM
TGI (SW-620 colon): 28.9 µM
TGI (CCRF-CEM leukemia): 60.2 µM
TGI (UACC-257 melanoma): 35.1 µM
TGI (UO-31 renal): 23.7 µM
TGI (SR leukemia): 26.4 µM

Nc1ccc2c(c1)Cc1ccccc1-2
TGI (OVCAR-5 ovarian): > 100 µM
TGI (RXF 393 renal): > 100 µM
TGI (KM12 colon): > 100 µM
TGI (COLO 205 colon): > 100 µM
TGI (ACHN renal): > 100 µM
TGI (M14 melanoma): > 100 µM
TGI (LOX IMVI melanoma): > 100 µM
TGI (SN12C renal): > 100 µM
TGI (IGROV1 ovarian): > 100 µM
TGI (EKVX NSCLC): > 100 µM
TGI (SK-MEL-5 melanoma): > 100 µM
TGI (NCI/ADR-RES ovarian): > 100 µM
TGI (NCI-H23 lung): > 100 µM
TGI (786-0 renal): > 100 µM
TGI (SF-539 CNS): > 100 µM
TGI (A549 NSCLC): > 100 µM
TGI (SK-OV-3 ovarian): > 100 µM
TGI (HS 578T breast): > 100 µM
TGI (MCF7 breast): > 100 µM
TGI (HCT-15 colon): > 100 µM
TGI (HOP-92 NSCLC): > 100 µM
TGI (U251 CNS): > 100 µM
TGI (CAKI-1 renal): > 100 µM
TGI (SNB-19 CNS): > 100 µM
TGI (MOLT-4 leukemia): > 100 µM
TGI (SK-MEL-2 melanoma): > 100 µM
TGI (OVCAR-3 ovarian): > 100 µM
TGI (SK-MEL-28 melanoma): > 100 µM
TGI (NCI-H226 lung): > 100 µM
TGI (NCI-H460 lung): > 100 µM
TGI (UACC-62 melanoma): > 100 µM
TGI (MDA-N): > 100 µM
TGI (MALME-3M melanoma): > 100 µM
TGI (K-562 leukemia): > 100 µM
TGI (BT-549 breast): > 100 µM
TGI (PC-3 prostate): > 100 µM
TGI (HOP-62 NSCLC): > 100 µM
TGI (TK-10 renal): > 100 µM
TGI (HCT-116 colon): > 100 µM
TGI (A498 renal): > 100 µM
TGI (OVCAR-4 ovarian): > 100 µM
TGI (HCC-2998 colon): > 100 µM
TGI (MDA-MB-435): > 100 µM
TGI (OVCAR-8 ovarian): > 100 µM
TGI (SNB-75 CNS): 94.3 µM
TGI (MDA-MB-231 breast): > 100 µM
TGI (HT29 colon): > 100 µM
TGI (SF-295 CNS): > 100 µM
TGI (SW-620 colon): > 100 µM
TGI (HL-60(TB) leukemia): > 100 µM
TGI (CCRF-CEM leukemia): > 100 µM
TGI (UACC-257 melanoma): > 100 µM
TGI (UO-31 renal): > 100 µM
TGI (SR leukemia): > 100 µM
